Assay results reported in patent publication US10071244B2, “Thoracoscopic electroporation device with a suction head and with needle electrodes” (UNIVERSITY COLLEGE CORK—NATIONAL UNIVERSITY OF IRELAND, CORK, priority 2012, dated 2018).

System: tumour tissue
Assay: Evans Blue perfusion test in tumour-bearing mouse
Assay type: in vivo
Description: FIG. 53 illustrates the result of an Evans Blue perfusion test;
Perfusion • A. One of the physiological impediments reducing the efficacy of chemotherapy relates to the poor diffusion of the drug from the capillaries through to the interstitial spaces surrounding the tumour cells. Poor lymphatic drainage and an irregular vasculature leads to the tumour interstitial pressure increasing with time as the tumour grows. This positive pressure is the opposite of normal tissue where a slightly negative interstitial pressure allows for convection of molecules across the capillaries. See FIG. 51 in which the X-axis represents the tumour volume in cm^3, Y-axis represents tumour interstitial pressure readings in mmHg. Each dot represents one TIP reading at a given tumour volume. Linear line represents correlation coefficients between tumour volume and TIP. • B. The positive pressure within the tumour tissue can be immediately negated through the placement of a vacuum directly on the tumour tissue. […] This facilitates better drug perfusion throughout the tumour interstitial spaces (between the cells) by allowing convection of macromolecules from the capilliaries to the […]. • C. This correction allows for perfusion of the chemotherapy from the capillaries into the tumour tissue. […]

SMILES: Cc1cc(-c2ccc(/N=N/c3ccc4c(S(=O)(=O)O)cc(S(=O)(=O)O)c(N)c4c3O)c(C)c2)ccc1/N=N/c1ccc2c(S(=O)(=O)O)cc(S(=O)(=O)O)c(N)c2c1O [Evans blue]
- dye perfusion into tumour, no vacuum (15 mins after injection into blood supply, tumour excised and dissected): only the periphery has absorbed the dye
- dye perfusion into tumour, with vacuum (vacuum applied to the tumour for 1 minute at 200 mmHg of negative pressure): Deep permeation of the dye is achieved throughout the tumour tissue
